Experimental data as given in article PMC7939384, “In crystallo screening for proline analog inhibitors of the proline cycle enzyme PYCR1” (The Journal of Biological Chemistry, 2021).

Biological target: T1, human PYCR1 (Homo sapiens, UniProt P32322)
T1 sequence (P32322 1-300): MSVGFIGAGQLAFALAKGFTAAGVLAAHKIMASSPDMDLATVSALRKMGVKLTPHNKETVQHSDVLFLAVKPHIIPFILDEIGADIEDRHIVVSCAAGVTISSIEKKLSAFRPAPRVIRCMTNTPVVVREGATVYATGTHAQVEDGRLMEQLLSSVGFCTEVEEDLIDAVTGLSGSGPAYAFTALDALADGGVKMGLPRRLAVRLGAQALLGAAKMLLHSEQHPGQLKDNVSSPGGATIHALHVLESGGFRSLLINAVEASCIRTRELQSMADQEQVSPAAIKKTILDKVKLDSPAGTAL
Assay: In crystallo screening: electron density as readout for binding (crystal soaking)
Design: includes residues 1–300 of the full-length 319-residue enzyme; inferred from the Ni-NTA purification; made in house; host or cells: Escherichia coli BL21 (DE3)
Details: apo crystals soaked with 25–500 mM of the proline analog
Description: Over two dozen proline analogs (Fig. 2) were screened using electron density from X-ray crystallography as the readout for binding to human PYCR1. […] Because the compounds bind in the P5C/proline site, the mechanism of inhibition was assumed to be competitive with P5C. Therefore, steady-state kinetic measurements were performed with L-P5C as the variable substrate (0-1000 μM) and NADH fixed (175 μM) (Fig. 3). For each compound, the data were fit globally to a competitive inhibition model (Equation 1) to obtain an inhibition constant, Ki.
06594), D,L-thiazolidine-2-carboxylate (Sigma-Aldrich no. 467995), L-thiazolidine-4-carboxylate (Sigma-Aldrich no. T27502), 1,3-thiazolidine-2,4-dicarboxylate (Sigma-Aldrich no. CDS000186), dimethyl 1,3-thiazolidine-2,4-dicarboxylate (Sigma-Aldrich no. […] 287067), L-4-hydroxyproline methyl ester (hydrochloride) (Sigma-Aldrich no. 30681), cis-4-hydroxy-D-proline methyl ester (hydrochloride) (Sigma-Aldrich no. […] 441562), L-(+)-mandelic acid (Sigma-Aldrich no. 63460), sodium-L-lactate (Sigma-Aldrich no. 71718), D-cycloserine (Sigma-Aldrich no. C6880). The proline analogs were added to apo crystals during cryoprotection by soaking the crystals in the reservoir solution supplemented with cryoprotectant (PEG 200 for the PEG 3350 form; glycerol for the NaCl form) and then in the same cryobuffer supplemented with 25–500 mM of the proline analog. Following equilibration, the crystals were harvested and rapidly plunged into liquid nitrogen.
The complex of PYCR1 with THFA was obtained by soaking a C2 crystal (NaCl form) for 15 min in a cryo-buffer consisting of the reservoir solution (3 M NaCl and 0.1 M HEPES at pH 7.5–8.0) supplemented with 30% glycerol and 50 mM THFA, followed by flash-cooling in liquid nitrogen. Crystals of the NFLP complex were prepared by soaking P2_12_12 crystals in the reservoir solution (250 mM Li2SO4, 19% (w/v) PEG 3350, 0.1 M HEPES, pH 7.5) supplemented with 20% (v/v) PEG 200 and 100 mM NFLP. The complexes with L-T2C and L-T4C were prepared similarly, except the Li2SO4 concentration was reduced to 25 mM and 50 mM of either L-T4C or D,L-T2C was included.

O=CN1CCC[C@H]1C(=O)O [NFLP, N-formyl L-proline]
electron density evidence for binding (in words): Electron density evidence for binding was observed
